The compounds below were run on Phosphorylation of STAT6 in human A549 cells (assay: Phosphorylated STAT6 (pSTAT6) flow cytometry assay in human A549 cells). Conditions: read-out: STAT6 IL4 pSTAT6 assay in A549 cells: Average IC50.
Assay type: cell-based
Text: Example 3. Phosphorylated STAT6 (pSTAT6) Flow Cytometry Assay in Human A549 Cells
Phosphorylation of STAT6 in human A549 cells was quantitatively measured using flow cytometry technology.
In the case of `COc1ccncc1-c1cc(C2=CCCN(C(=O)CCn3ccnn3)C2)c(F)c2[nH]c(C(=O)N3CCN(C4CC4)CC3)cc12` [Example I-587], the IC50 is reported as < 100 nM. For `COc1cc(F)cnc1N1CCN(C(=O)c2cc3c(C4=CCCC4)cc(C4=CCCN(C(=O)CCn5ccnn5)C4)c(F)c3[nH]2)CC1` [Example I-1134], the IC50 was < 100 nM. In the case of `COc1ccccc1-c1cc(C2=CCCN(C(=O)CCn3ccnn3)C2)c(F)c2[nH]c(C(=O)N3CCN(c4ncccc4F)CC3)cc12` [Example I-361], the IC50 is reported as < 100 nM. `CN(C)C(=O)c1cc2ccc(C3=CCCN(C(=O)C4Cc5ccccc5CN4C=O)C3)cc2[nH]1` (stereo not shown) [Example I-822] was tested, and the IC50 was 100 to 1000 nM. `COc1cc(F)cnc1N1CCN(C(=O)c2cc3c(C4=CCC(F)(F)CC4)cc(C4=CCCN(C(=O)CCn5ccnn5)C4)c(F)c3[nH]2)CC1` [Example I-1158] was tested, and the IC50 was < 100 nM. With `COc1cc(F)cnc1N1CCN(C(=O)c2cc3c(C=C4CCOCC4)cc(C4=CCCN(C(=O)CCn5ccnn5)C4)c(F)c3[nH]2)CC1` [Example I-644] the IC50 was < 100 nM. For `COc1ccccc1-c1cc(C2=CCCN(C(=O)CCn3ccnn3)C2)c(F)c2[nH]c(C(=O)N3CCN(c4c(O)ccc5ccccc45)CC3)cc12` [Example I-965], the IC50 was 100 to 1000 nM. In the case of `COc1ccccc1-c1cc(C2=CCCN(C(=O)CCn3ccnn3)C2)c(F)c2[nH]c(C(=O)N(C)CCc3ccccn3)cc12` [Example I-986], the IC50 is reported as < 100 nM. In the case of `CCOc1c(F)cccc1-c1cc(C2=CCCN(C(=O)CCn3ccnn3)C2)c(F)c2[nH]c(C(=O)N3CCN(c4ncc(F)cc4OC)CC3)cc12` [Example I-643], the IC50 is reported as < 100 nM. `COc1ccccc1-c1cc(C2=CCCN(C(C)=O)C2)c(F)c2[nH]c(C(=O)N(C)C)cc12` [Example I-1069] was tested, and the IC50 was < 100 nM. In the case of `CCCc1cc(C2=CCCN(C(=O)CCn3ccnn3)C2)c(F)c2[nH]c(C(=O)N3CCN(c4ncc(F)cc4OC)CC3)cc12` [Example I-693], the IC50 is reported as > 100000 nM. `COc1ccccc1-c1cc(C2=CCCN(C(=O)CCn3ccnn3)C2)c(F)c2[nH]c(C(=O)N3CCN(c4cc(OC)c5c(c4)nnn5C)CC3)cc12` [Example I-962] was tested, and the IC50 was < 100 nM. With `CCc1ccncc1-c1cc(C2=CCCN(C(=O)CCn3ccnn3)C2)c(F)c2[nH]c(C(=O)N3CCN(c4ncccc4OC4CC4)CC3)cc12` [Example I-479] the IC50 was < 100 nM. In the case of `COc1ccc(C)cc1-c1cc(C2=CCCN(C(=O)C3Cc4ccccc4CN3C=O)C2)cc2cc(C(=O)N(C)C)oc12` (racemic) [Example I-1196], the IC50 is reported as < 100 nM. `CN(C)C(=O)c1cc2cc(C3=CCCN(C(=O)C(Cn4ccnn4)c4cccc(C#N)c4)C3)ccc2o1` (stereo not shown) [Example I-835] gave an IC50 of 100 to 1000 nM. With `COc1cc(F)cnc1N1CCN(C(=O)c2cc3c(-c4ccc(C(O)C(F)(F)F)cc4)cc(C4=CCCN(C(=O)CCn5ccnn5)C4)c(F)c3[nH]2)CC1` (stereo not shown) [Example I-1145] the IC50 was < 100 nM. For `COc1ccccc1-c1cc(C2=CCCN(C(=O)CCn3ccnn3)C2)c(F)c2[nH]c(C(=O)N3CCN(c4ccc[nH]c4=O)CC3)cc12` [Example I-1003], the IC50 was < 100 nM. With `COc1ccccc1-c1cc(C2=CCCN(C(=O)CCn3ccnn3)C2)c(F)c2[nH]c(C(=O)N3CCN(c4ccsc4C#N)CC3)cc12` [Example I-776] the IC50 was < 100 nM. `CCc1nc(C)ccc1-c1cc(C(=O)N2CCN(C3CC3)CC2)cc2c(F)c(C3=CCCN(C(=O)CCn4ccnn4)C3)n(CC3CC3)c12` [Example I-548] was tested, and the IC50 was > 100000 nM. `CCn1ncc2c1CN(C(=O)c1cc(C3=CCCCC3)c3c(c1)cc(C1=CCCN(C(=O)CCn4ccnn4)C1)n3CC1CC1)C2` [Example I-765] was tested, and the IC50 was < 100 nM. In the case of `CN(C)C(=O)c1cc2cc(C3=CCCN(C(=O)CCn4ccnn4)C3)cc(-c3ccc4cnn(C)c4c3)c2o1` [Example I-1072], the IC50 is reported as < 100 nM. With `COc1cc(C)c(-c2cc(C3=CCCN(C(=O)CCn4ccnn4)C3)cc3cc(C(=O)N(C)C)oc23)cc1C` [Example I-1078] the IC50 was < 100 nM. In the case of `COc1ccccc1N1CCN(C(=O)c2cc3c(-c4cnccc4OC(F)F)cc(C4=CCCN(C(=O)CCn5ccnn5)C4)c(F)c3[nH]2)CC1` [Example I-426], the IC50 is reported as < 100 nM. Work on `CCOC(=O)c1ccc(N2CCN(C(=O)c3cc4c(-c5ccccc5OC)cc(C5=CCCN(C(=O)CCn6ccnn6)C5)c(F)c4[nH]3)CC2)cc1` [Example I-931] yielded an IC50 of 100 to 1000 nM. For `COc1ccccc1-c1cc(C2=CCCN(C(=O)CCn3ccnn3)C2)c(F)c2[nH]c(C(=O)N3CCC(Nc4ncccn4)CC3)cc12` [Example I-849], the IC50 was < 100 nM. With `CCc1cnccc1-c1cc(C(=O)N2CCN(c3ncc(F)cc3OC)CC2)cc2cc(C3=CCCN(C(=O)CCn4ccnn4)C3)n(CC3CC3)c12` [Example I-542] the IC50 was > 100000 nM. In the case of `COc1cc2c(-c3cc(C4=CCCN(C(=O)CCn5ccnn5)C4)c(F)c4[nH]c(C(=O)N5CCN(c6ncc(F)cc6OC)CC5)cc34)ccnc2cc1F` [Example I-691], the IC50 is reported as < 100 nM. With `COc1cc(Cl)cnc1N1CCN(C(=O)c2cc3c(-c4cccnc4OC)cc(C4=CCCN(C(=O)CCn5ccnn5)C4)c(F)c3[nH]2)CC1` [Example I-460] the IC50 was < 100 nM. With `COc1ccccc1-c1cc(C2=CCCN(C(=O)CCn3ccnn3)C2)c(F)c2[nH]c(C(=O)N3CCN(c4ccc5cn[nH]c5c4)CC3)cc12` [Example I-963] the IC50 was < 100 nM. With `COc1cc(F)cnc1N1CCN(C(=O)c2cc3c(-c4ccncc4C(C)C)cc(C4=CCCN(C(=O)CCn5ccnn5)C4)c(F)c3[nH]2)CC1` [Example I-703] the IC50 was 10000 to 100000 nM. For `COc1ccccc1-c1cc(C2=CCCN(C(=O)CCn3ccnn3)C2)c(F)c2[nH]c(C(=O)N3CCN(Cc4nc(C)cs4)CC3)cc12` [Example I-1185], the IC50 was < 100 nM. `CN(C)C(=O)c1cc2cc(C3=CCCN(C(=O)CCn4ccnn4)C3)cc(-c3cc(C(F)(F)F)nn3C)c2o1` [Example I-855] was tested, and the IC50 was < 100 nM. With `COc1cc(F)ccc1-c1cc(C2=CCCN(C(=O)CCn3ccnn3)C2)c(F)c2[nH]c(C(=O)N3CCN(c4ccccc4OC)CC3)cc12` [Example I-598] the IC50 was < 100 nM. For `COc1ccccc1-c1cc(C2=CCCN(C(=O)CCn3ccnn3)C2)c(F)c2[nH]c(C(=O)N3CCN(c4cn5ccnc5cc4C)CC3)cc12` [Example I-915], the IC50 was < 100 nM. `COc1cc(C)ncc1-c1cc(C2=CCCN(C(=O)CCn3ccnn3)C2)c(F)c2[nH]c(C(=O)N3CCN(c4ncc(F)cc4OC)CC3)cc12` [Example I-667] was tested, and the IC50 was > 100000 nM. In the case of `COc1ccccc1-c1cc(C2=CCCN(C(=O)CCn3ccnn3)C2)c(F)c2[nH]c(C(=O)N3CCN(c4c(C)ccn5nccc45)CC3)cc12` [Example I-1019], the IC50 is reported as < 100 nM. `COc1cc(F)cnc1N1CCN(C(=O)c2cc3c(-c4ccc(-c5ccncc5)cc4)cc(C4=CCCN(C(=O)CCn5ccnn5)C4)c(F)c3[nH]2)CC1` [Example I-1118] was tested, and the IC50 was < 100 nM. With `CCc1nc(C)ccc1-c1cc(C(=O)N2CCN(c3ncc(F)cc3OC)CC2)cc2cc(C3=CCCN(C(=O)CC(=O)O)C3)n(CC(C)C)c12` [Example I-800] the IC50 was > 100000 nM. In the case of `COc1ccccc1-c1cc(C2=CCCN(C(=O)CCn3ccnn3)C2)c(F)c2[nH]c(C(=O)N3CCN(c4ncc(C(F)(F)F)cc4OC)CC3)cc12` [Example I-941], the IC50 is reported as < 100 nM. `CN(C)C(=O)c1cc2cc(C3=CCCN(C(=O)CCc4nccs4)C3)ccc2o1` [Example I-815] gave an IC50 of 100 to 1000 nM. In the case of `Cc1ccc(-c2cc(C3=CCCN(C(=O)CCn4ccnn4)C3)cc3cc(C(=O)N(C)C)oc23)c(O)c1` [Example I-853], the IC50 is reported as < 100 nM. With `COc1cc(F)cnc1N1CCN(C(=O)c2cc3c(-c4ccc(C5CC5)cc4)cc(C4=CCCN(C(=O)CCn5ccnn5)C4)c(F)c3[nH]2)CC1` [Example I-1157] the IC50 was < 100 nM. For `COc1cc(F)cnc1N1CCN(C(=O)c2cc3c(-c4cc(C)nc5ccccc45)cc(C4=CCCN(C(=O)CCn5ccnn5)C4)c(F)c3[nH]2)CC1` [Example I-630], the IC50 was < 100 nM. `COc1cc(F)cnc1N1CCN(C(=O)c2cc3c(C4=CCCCC4)cc(C4=CCCN(C(=O)CCn5ccnn5)C4)c(F)c3[nH]2)CC1` [Example I-1135] was tested, and the IC50 was < 100 nM. For `COc1ccccc1-c1cc(C(=O)N(C)C)cc2cc(C3=CCCN(C(=O)CCn4ccnn4)C3)n(CC3CC3)c12` [Example I-899], the IC50 was < 100 nM. With `COc1ccc(-c2cc(C3=CCCN(C(=O)CCn4ccnn4)C3)c(F)c3[nH]c(C(=O)N4CCN(c5ncc(F)cc5OC)CC4)cc23)c(C2CC2)c1` [Example I-641] the IC50 was < 100 nM. In the case of `Cc1ccc(-c2cc(C3=CCCN(C(=O)CCn4ccnn4)C3)cc3cc(C(=O)N(C)C)oc23)cn1` [Example I-1084], the IC50 is reported as < 100 nM. `CCc1ccc(-c2cc(C(=O)N3Cc4cnn(CC)c4C3)cc3cc(C4=CCCN(C(=O)C(=O)O)C4)n(CC4CC4)c23)c(C)n1` [Example I-798] was tested, and the IC50 was > 100000 nM. With `COc1ccccc1-c1cc(C2=CCCN(C(=O)CCn3ccnn3)C2)c(F)c2[nH]c(C(=O)N3CCN(c4ccc(C)cc4)CC3)cc12` [Example I-860] the IC50 was 100 to 1000 nM. With `CCc1ccncc1-c1cc(C2=CCCN(C(=O)CCn3ccnn3)C2)c(F)c2[nH]c(C(=O)N3CCN(C4CC4)CC3)cc12` [Example I-473] the IC50 was < 100 nM. With `COc1ccncc1-c1cc(C2=CCCN(C(=O)CCn3ccnn3)C2)c(F)c2[nH]c(C(=O)N3CCN(c4nc(Cl)ccc4OC)CC3)cc12` [Example I-491] the IC50 was > 100000 nM. `CN(C)C(=O)c1cc2cc(C3=CCCN(C(=O)CCc4cccnn4)C3)ccc2o1` [Example I-820] was tested, and the IC50 was 100 to 1000 nM. `COc1ccncc1-c1cc(C2=CCCN(C(=O)CCn3ccnn3)C2)c(F)c2[nH]c(C(=O)N3CCN(c4nnccc4OC)CC3)cc12` [Example I-467] was tested, and the IC50 was < 100 nM. With `COc1ccccc1-c1cc(C2=CCCN(C(=O)CCn3ccnn3)C2)c(F)c2[nH]c(C(=O)N3CCN(c4ccccn4)C(=O)C3)cc12` [Example I-1008] the IC50 was < 100 nM. For `COc1ccccc1-c1cc(C2=CCCN(C(=O)CCn3ccnn3)C2)c(F)c2[nH]c(C(=O)N3CCc4n[nH]cc4C3)cc12` [Example I-851], the IC50 was < 100 nM. In the case of `COc1cc(F)cnc1N1CCN(C(=O)c2cc3c(-c4ccc(CN5CCOCC5)nc4)cc(C4=CCCN(C(=O)CCn5ccnn5)C4)c(F)c3[nH]2)CC1` [Example I-1137], the IC50 is reported as < 100 nM. In the case of `COc1ccccc1-c1cc(C2=CCCN(C(=O)CCn3ccnn3)C2)c(F)c2[nH]c(C(=O)N3CCN(c4cc5ccccc5nc4O)CC3)cc12` [Example I-952], the IC50 is reported as < 100 nM. `COc1ccccc1-c1cc(C2=CCCN(C(=O)CCn3ccnn3)C2)c(F)c2[nH]c(C(=O)N3CCN(CC4CCCO4)CC3)cc12` (stereo not shown) [Example I-1184] was tested, and the IC50 was < 100 nM.

Reference: US20250214977A1, “STAT6 INHIBITORS AND USES THEREOF” (Kymera Therapeutics, Inc., priority 2024, published 2025)
